Assay results: patent publication US4261978A, “Treatment and prophylaxis of swine dysentery” (Takeda Chemical Industries, Ltd., priority 1978, dated 1981)
In brackets after ≈: the same amount, converted by molar mass. Read-outs that look alike come from different tables or passages of the source.

Tests used:
Treponema hyodysenteriae [1] = assay: Minimum inhibitory concentration against Treponema hyodysenteriae (agar dilution); format: cell-based; conditions: 10^6 CFU/ml. loopful, 37° C., 2 days; for MIC: Brachyspira hyodysenteriae, 48 h
Procedure: (1)Strains: These strains belong to Treponema hyodysenteriae isolated fro
the bloody mucous faeces of dysenteric pigs; MK 1, MK 2 and MK 4 were
obtained in Kyushu District of Japan while OX 1 was obtained in Okinawa,
(2)Antimicrobial potency assay: Agar Dilution Method
(3) Inoculum size: a loopful of 10^6 CFU/ml.
(4)Cultural conditions: Gas Pak (BBL) method, 37° C., 2 days

[2] = Acute oral toxicity (LD50); format: in vivo, mouse; conditions: for LD50: mouse, oral
Source text: (C) Carriomycin is extremely low in toxicity to animals.

Treponema hyodysenteriae [3] = assay: Therapeutic efficacy of medicated feed in pigs experimentally infected with swine dysentery; format: in vivo, pigs (SPF LW)
Procedure: A premix containing 10% of carriomycin monosodium salt crystals as diluted with finely milled soybean meal was added to a feedstuff and pigs were allowed to take the feed as libitum. The feed was the proprietary pig starter mentioned in Example 2 without added antibiotics. The pigs were SPF LW and used in groups of 4 animals (2 male and 2 female.)
The pigs were infected as follows. Thus, Treponema hyodysenteriae was anaerobically grown on a 5% horse blood agar plate and the resultant culture was homogenized and admixed with 3% mucin-phosphate buffer. The mixture was directly administered into the stomach of each SPF pig. From each of the pigs showing typical symptoms of swine dysentery, the colon content and mucous membrane were taken and diluted two-fold with 3% mucin-phosphate buffer to obtain a final infective material. An 80 ml. portion of this preparation was directly infused into the stomach of each test pig, which was then put on the unmedicated feed for the initial six days. Beginning with the 7th day, each pig was put on the feed medicated with one of predetermined concentrations of the test drug and was reared for a total of 28 days. Tests were performed for three groups of animals dosed with 0 ppm. 15 ppm. and 150 ppm., respectively, of carriomycin.

[4] = Absorption from the digestive tract and residue in the animal body; conditions: in words

COC1CCC(OC2C(C)C(CC3CC(OC)C(C)C4(O3)OC(C)(C3CCC(C5CCC(C6OC(C)(O)C(C)CC6C)O5)O3)C(OC)C4C)OC(O)(C(C)C(=O)O)C2C)OC1C (stereo not drawn) [Carriomycin, carriomycin]
Minimum inhibitory concentration (MIC) (Treponema hyodysenteriae [1]; strain MK 1): 0.1 µg/mL (≈ 0.113 µM) | Minimum inhibitory concentration (MIC) (Treponema hyodysenteriae [1]; strain MK 2): 0.1 µg/mL (≈ 0.113 µM) | Minimum inhibitory concentration (MIC) (Treponema hyodysenteriae [1]; strain MK 4): 0.1 µg/mL (≈ 0.113 µM) | Minimum inhibitory concentration (MIC) (Treponema hyodysenteriae [1]; strain OX 1): 0.1 µg/mL (≈ 0.113 µM) | toxicity to animals ([2]; in words): extremely low | LD50 [2]: about 2,000 mg./kg. | Mean body weight at end of test (Treponema hyodysenteriae [3]; group B, 15 ppm. in feed): 29.1 kg./head | Mean feed conversion ratio (Treponema hyodysenteriae [3]; group B, 15 ppm. in feed): 2.5 | Mean feed intake (Treponema hyodysenteriae [3]; group B, 15 ppm. in feed): 36.5 kg./head | Mean number of days with bloody mucous faeces (Treponema hyodysenteriae [3]; group B, 15 ppm. in feed): 0.5 days/head | Mean number of days with diarrhea (Treponema hyodysenteriae [3]; group B, 15 ppm. in feed): 3.0 days/head | Mean weight gain (Treponema hyodysenteriae [3]; group B, 15 ppm. in feed): 14.6 kg./head | Mean body weight at end of test (Treponema hyodysenteriae [3]; group C, 150 ppm. in feed): 31.7 kg./head | Mean feed conversion ratio (Treponema hyodysenteriae [3]; group C, 150 ppm. in feed): 2.3 | Mean feed intake (Treponema hyodysenteriae [3]; group C, 150 ppm. in feed): 37.3 kg./head | Mean number of days with bloody mucous faeces (Treponema hyodysenteriae [3]; group C, 150 ppm. in feed): 0.1 days/head | Mean number of days with diarrhea (Treponema hyodysenteriae [3]; group C, 150 ppm. in feed): 1.5 days/head | Mean weight gain (Treponema hyodysenteriae [3]; group C, 150 ppm. in feed): 16.2 kg./head | body weight gain (Treponema hyodysenteriae [3]; in words, from Table 2): considerable increases | feed conversion ratio, number of days with diarrhea and number of days with bloody mucous faeces (Treponema hyodysenteriae [3]; in words, from Table 2): considerable improvements | absorption from the digestive tract [4]: sparingly absorbed | residue in the animal body [4]: substantially no residue

CCC(C(=O)C(C)C(O)C(C)CCc1ccc(C)c(O)c1C(=O)O)C1OC(CC)(C2CCC(O)(CC)C(C)O2)CC1C (stereo not drawn) [Lasalocid A]
MIC (Treponema hyodysenteriae [1]; strain MK 1): 10 µg/mL (≈ 16.9 µM) | MIC (Treponema hyodysenteriae [1]; strain MK 2): 10 µg/mL (≈ 16.9 µM) | MIC (Treponema hyodysenteriae [1]; strain MK 4): 10 µg/mL (≈ 16.9 µM) | MIC (Treponema hyodysenteriae [1]; strain OX 1): 10 µg/mL (≈ 16.9 µM) | LD50 ([2]; in vivo, read-out: LD50): 146 mg/kg

CC[C@@]1([C@@H]2O[C@@H]([C@H]3O[C@@](O)(CO)[C@H](C)C[C@@H]3C)C[C@@H]2C)CC[C@H]([C@]2(C)CC[C@]3(C[C@H](O)[C@@H](C)[C@@H]([C@@H](C)[C@@H](OC)[C@H](C)C(=O)O)O3)O2)O1 [Monensin]
MIC (Treponema hyodysenteriae [1]; strain MK 1): 1 µg/mL (≈ 1.49 µM) | MIC (Treponema hyodysenteriae [1]; strain MK 2): 1 µg/mL (≈ 1.49 µM) | MIC (Treponema hyodysenteriae [1]; strain MK 4): 1 µg/mL (≈ 1.49 µM) | MIC (Treponema hyodysenteriae [1]; strain OX 1): 1 µg/mL (≈ 1.49 µM)

CC[C@@H](C(=O)[C@@H](C)[C@@H](O)[C@H](C)[C@@H]1O[C@@H]([C@@H](CC)C(=O)O)CC[C@@H]1C)[C@H]1O[C@]2(C=C[C@@H](O)[C@]3(CC[C@@](C)([C@H]4CC[C@](O)(CC)[C@H](C)O4)O3)O2)[C@H](C)C[C@@H]1C [Salinomycin, salinomycin]
MIC (Treponema hyodysenteriae [1]; strain MK 1): 1 µg/mL (≈ 1.33 µM) | MIC (Treponema hyodysenteriae [1]; strain MK 2): 1 µg/mL (≈ 1.33 µM) | MIC (Treponema hyodysenteriae [1]; strain MK 4): 0.1 µg/mL (≈ 0.133 µM) | MIC (Treponema hyodysenteriae [1]; strain OX 1): 1 µg/mL (≈ 1.33 µM) | LD50 ([2]; in vivo, read-out: LD50): 50 mg/kg
